Seven compounds from ChEMBL document CHEMBL1177843, “Metal based biologically active compounds: design, synthesis, and antibacterial/antifungal/cytotoxic properties of triazole-derived Schiff bases and their oxovanadium(IV) complexes” (Eur J Med Chem, 2010) can be followed below.

In data set [1] the test system is Artemia salina. In words: Toxicity in Artemia salina nauplii assessed as mortality after 24 hrs. Conditions: in vivo. It counts as organism-based.
The test system of data set [2] is Escherichia coli. As to the kind of experiment: Antibacterial activity against Escherichia coli at 1 mg/ml after 24 hrs by agar-well diffusion method. It counts as functional. Conditions: for zone of inhibition at 1000 µg/mL: Escherichia coli, 24 h, read-out: DIZ.
For data set [3], the system named is Shigella flexneri. In words: Antibacterial activity against Shigella flexneri at 1 mg/ml after 24 hrs by agar-well diffusion method. It counts as functional. Conditions: for zone of inhibition at 1000 µg/mL: Shigella flexneri, 24 h, read-out: DIZ.
In data set [4] the test system is Pseudomonas aeruginosa. As to the kind of experiment: Antibacterial activity against Pseudomonas aeruginosa at 1 mg/ml after 24 hrs by agar-well diffusion method. The data set is classed as functional. Conditions: for zone of inhibition at 1000 µg/mL: Pseudomonas aeruginosa, 24 h, read-out: DIZ.
Data set [5] relates to Salmonella enterica. As to the kind of experiment: Antibacterial activity against Salmonella typhi at 1 mg/ml after 24 hrs by agar-well diffusion method. It counts as functional, Salmonella enterica subsp. enterica serovar Typhi. Conditions: for zone of inhibition at 1000 µg/mL: Salmonella enterica, 24 h, read-out: DIZ.
For data set [6], the system named is Staphylococcus aureus. As to the kind of experiment: Antibacterial activity against Staphylococcus aureus at 1 mg/ml after 24 hrs by agar-well diffusion method. It counts as functional. Conditions: for zone of inhibition at 1000 µg/mL: Staphylococcus aureus, 24 h, read-out: DIZ.
Data set [7] relates to Bacillus subtilis. In words: Antibacterial activity against Bacillus subtilis at 1 mg/ml after 24 hrs by agar-well diffusion method. The data set is classed as functional. Conditions: for zone of inhibition at 1000 µg/mL: Bacillus subtilis, 24 h, read-out: DIZ.
Data set [8] has as its system Aspergillus flavus. In words: Antifungal activity against Aspergillus flavus after 7 days. The data set is classed as functional. Conditions: 168 h.
Data set [9] deals with Trichophyton longifusum. As to the kind of experiment: Antifungal activity against Trichophyton longifusum after 7 days. It counts as functional. Conditions: 168 h.
Data set [10] relates to Candida albicans. In words: Antifungal activity against Candida albicans after 7 days. Conditions: 168 h.
Data set [11] has as its system Microsporum canis. As to the kind of experiment: Antifungal activity against Microsporum canis after 7 days. Conditions: 168 h. It counts as functional.
The test system of data set [12] is Fusarium solani. As to the kind of experiment: Antifungal activity against Fusarium solani after 7 days. The data set is classed as functional. Conditions: 168 h.
For data set [13], the system named is Nakaseomyces glabratus. As to the kind of experiment: Antifungal activity against Candida glabrata after 7 days. It counts as functional. Conditions: 168 h.

Values after ≈ are worked out from the molar mass of the structure shown. Where only a bound is given, the exact number is not on record here.

As to `C/C(=N\c1n[nH]c(/N=C(\C)c2ccccn2)n1)c1ccccn1`, in data set [1], the LD50 was more than 3.341 ×10⁻⁴ M/ml. Further, the Activity in [2] is recorded as 58%; in data set [3], 39%; in data set [4] it was 58%; in data set [5], 58%; in [6], 39%; in data set [7], 39%. In addition, the zone of inhibition at 1000 µg/mL in data set [2] amounted to 17 mm; in data set [3], 12 mm; in [4] it was 18 mm; in data set [5], 16 mm; in data set [6] it was 11 mm; in data set [7], 13 mm.

With `Oc1ccc2ccccc2c1/C=N/c1n[nH]c(/N=C/c2c(O)ccc3ccccc23)n1`, the LD50 in data set [1] is more than 7.614 ×10⁻⁴ M/ml. The Activity was found to be 35% in data set [2]; 35% in [3]; 35% in [4]; 35% in data set [5]; 35% in [6]; 57% in data set [7]. Besides, the zone of inhibition at 1000 µg/mL was 11 mm in [2]; 13 mm in [3]; 11 mm in [4]; 14 mm in [5]; 12 mm in [6]; 16 mm in [7].

As for `C(=N\c1n[nH]c(/N=C/c2ccc[nH]2)n1)/c1ccc[nH]1`, in data set [1], the LD50 is more than 6.897 ×10⁻⁴ M/ml. Also, the Activity was 55% in data set [2]; 39% in data set [3]; 39% in data set [4]; 55% in [5]; 39% in [6]; 39% in [7]. Moreover, the zone of inhibition at 1000 µg/mL in data set [2] was found to be 17 mm; in data set [3] it was 12 mm; in data set [4] it was 14 mm; in data set [5], 16 mm; in data set [6], 11 mm; in [7] it was 13 mm.

As to `C(=N\c1n[nH]c(/N=C/c2ccccn2)n1)/c1ccccn1`, the LD50 in [1] is reported as more than 4.128 ×10⁻⁴ M/ml. The Activity in [2] was determined as 43%; in data set [3] it was 58%; in [4], 43%; in data set [5] it was 43%; in data set [6], 58%; in [7] it was 43%. Also, the zone of inhibition at 1000 µg/mL in data set [2] was determined as 15 mm; in data set [3], 18 mm; in data set [4] it was 13 mm; in data set [5] it was 11 mm; in data set [6], 16 mm; in data set [7], 12 mm.

Consider `C[C@@H]1[C@H](O)[C@@H](C)/C=C/C=C/C=C/C=C/C=C/C=C/C=C/[C@H](O[C@@H]2O[C@H](C)[C@@H](O)[C@H](N)[C@@H]2O)C[C@@H]2O[C@](O)(C[C@@H](O)C[C@@H](O)[C@H](O)CC[C@@H](O)C[C@@H](O)CC(=O)O[C@H]1C)C[C@H](O)[C@H]2C(=O)O` [AMPHOTERICIN B], for which the MIC in data set [8] was 20 µg/mL (≈ 21.6 µM).

Consider `C[C@@H](O)[C@H]1C(=O)N2C(C(=O)O)=C(SCCNC=N)C[C@H]12` [IMIPENEM ANHYDROUS], for which the zone of inhibition at 1000 µg/mL in [2] was determined as 29 mm; in data set [3], 31 mm; in data set [4], 30 mm; in data set [5], 29 mm; in data set [6], 26 mm; in data set [7] it was 28 mm.

In the case of `Clc1ccc(COC(Cn2ccnc2)c2ccc(Cl)cc2Cl)c(Cl)c1` (centres undefined) [MICONAZOLE], the MIC in [9] stood at 70 µg/mL (≈ 168 µM); in [10], 111 µg/mL (≈ 266 µM); in data set [11], 98.4 µg/mL (≈ 236 µM); in data set [12], 73.2 µg/mL (≈ 176 µM); in [13] it was 111 µg/mL (≈ 266 µM).
